Source: US11090273B2, “Tagged poly(ester amide urethane)s, nanoparticles formed from same, and uses thereof” (Cornell University, priority 2016, dated 2021)

How the values were obtained:
[1] = test system: HeLa cells; assay: Mitochondrial membrane potential (ΔΨm) change, JC-1 flow cytometry; format: cell-based; settings: 2 μg/mL GA equivalent (CCCP 50 μM), 24 h
[2] = test system: A549 cells; assay: as above; format: cell-based, human; settings: 2 μg/mL GA equivalent (CCCP 50 μM), 24 h
[3] = test system: HCT116 cells; assay: Cellular apoptosis by flow cytometry (Annexin V-FITC/PI); format: cell-based, human; settings: HCT 116; 2 μg/mL GA or equal amount loaded; 24 h
Method: Apoptosis was assessed using staining with Annexin V-FITC/PI apoptosis detection kit (Affymetrix, CA) according to the manufacturer's instruction followed by flow cytometry analysis.

[4] = test system: MMP-2 and MMP-9 activity of A549 cells; assay: Gelatin zymography of MMP activity; format: cell-based, human; settings: 0.6 μg/mL GA equivalent, serum-free media, 16 h
[5] = test system: MCF-7 human breast cancer xenograft tumor; settings: xenograft tumor at end of study
Method: In vivo xenograft Protocols Used. Female BALB/c nude mice, 8-weeks old, were obtained from the Laboratory Animal Services Centre, The Chinese University of Hong Kong. Mice were kept at room temperature 23±2° C. with an alternating 12-h light-dark cycle, and were allowed access to food and water ad libitum.
Before inoculation, 10 mg/kg Estradiol benzoate was given into mice through intraperitoneal (IP) injection with 2-day intervals. MCF-7 cells (4×10^6 cells per mouse) were suspended in PBS and inoculated subcutaneously into the left flank of each mouse, and tumor growth was monitored regularly. […] Equal volumes of saline were used as solvent for the free drug groups.
The therapy was continued six times at 2-day intervals through tail vein injection. Estradiol benzoate was also IP injected into mice at 2-day intervals during administration. The antitumor activity of the tested formulations was estimated by recording the changes in tumor mass. Tumor volumes were monitored by recording the tumor length and width with a caliper then calculated using the equation, V=0.5×a×b^2, where V is tumor volume (mm), a is tumor length (mm), and b is tumor width (mm). Mice were sacrificed on the 12th day after administration, and the tumors were weighed. […]

Row | SMILES | percentage of cell population with severe loss of ΔΨm [1] [%] | percentage of cell population with severe loss of ΔΨm [2] [%] | percentage of dead cells [3] [%] | percentage of healthy cells [3] [%] | percentage of late apoptotic cells [3] [%] | MMP band size and intensity / MMP activity (gelatin zymography) [4] | H&E staining: vacuoles in the tumor tissue [5]
1 | N#CC(C#N)=NNc1cccc(Cl)c1 [CCCP, carbonyl cyanide 3-chlorophenylhydrazone] | 60.0 | 89.7 |  |  |  |  | 
2 | CC(C)=CCC[C@]1(C)C=Cc2c(O)c3c(c(CC=C(C)C)c2O1)O[C@]12C(=C[C@@H]4C[C@H]1C(C)(C)O[C@@]2(C/C=C(/C)C(=O)O)C4=O)C3=O [GA, Gambogic acid] | 29.7 | 60.1 | 27.7 | 68.1 | 2.0 | reduced when comparing to the control sample | fewer vacuoles
